Series [1] has as its target T1, hMfsd2a (Homo sapiens, UniProt Q8NA29).
T1 construct: expressed in transfected cells; host or cells: HEK293
T1 sequence (Q8NA29 1-530 isoform Q8NA29-2): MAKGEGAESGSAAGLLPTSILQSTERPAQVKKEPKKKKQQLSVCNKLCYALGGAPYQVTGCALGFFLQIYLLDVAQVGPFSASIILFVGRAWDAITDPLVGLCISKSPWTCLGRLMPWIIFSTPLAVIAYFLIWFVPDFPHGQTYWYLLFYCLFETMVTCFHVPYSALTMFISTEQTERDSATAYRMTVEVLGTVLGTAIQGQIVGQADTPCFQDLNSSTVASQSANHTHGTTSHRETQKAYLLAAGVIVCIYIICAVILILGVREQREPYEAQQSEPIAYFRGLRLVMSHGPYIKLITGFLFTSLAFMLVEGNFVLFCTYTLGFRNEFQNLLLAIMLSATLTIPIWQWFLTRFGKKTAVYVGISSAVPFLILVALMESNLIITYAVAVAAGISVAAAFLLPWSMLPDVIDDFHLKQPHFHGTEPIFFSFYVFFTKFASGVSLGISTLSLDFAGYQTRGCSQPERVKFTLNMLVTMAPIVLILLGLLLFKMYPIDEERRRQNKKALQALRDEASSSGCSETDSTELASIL
Kind of series: In vitro Mfsd2a transport, thin layer chromatography (TLC) analysis. The class given is cell-based. The note with it: transfected HEK293 cells, 50 μM test compound, 1 hour, iodine and cupric acetate stain. The method, then:
(§1) The assay was conducted in a low throughput 6-well format with HEK293 cells prepared and then transfected in duplicate wells with plasmids containing either the wildtype (WT) version of hMfsd2a, the D97A mutant version, or an empty vector as control. Uptake into the ceils was assessed by both thin-layer chromatography (TLC) and ultrahigh performance liquid chromatography hyphenated mass spectrometry.
(§2) HEK293 cells were seeded at 6.25×10^5 per 6-well in 2 mL of DMEM with 10% FBS and 1% penicillin-streptomycin (P/S) media (Sigma) and incubated overnight at 37° C. in 5% CO2. Cells were checked for confluency the next morning. On a per well basis the following lipid mix was generated, 6 μL of Lipofectamine 2000 was added dropwise to 200 μL of OptiMEM, this was left to stand for 5 minutes at room temperature (RT). 1 μg of hMfsd2a WT, D97A or empty plasmid was prepared in 200 μL of OptiMEM as appropriate for each well; the Lipofectamine 2000 in OptiMEM solution was then added dropwise to a total volume of 400 μL (this can be scaled to support the number of wells/plates to be assayed). This transfection preparation was then incubated at RT for 20 minutes. DMEM with 10% FBS and no P/S media was warmed to 37° C., the HEK293 plate media was changed and the cells washed carefully with 1 mL of the warmed DMEM with 10% FBS no P/S media, 1.6 mL of the warmed DMEM with 10% FBS no P/S media was then added to each well. 400 μL of the transfection preparation was then added dropwise to each well as appropriate and the plate was gently swirled in a circular motion. The plate was then incubated overnight at 37° C. in 5% CO2.
(§3) Compound Incubation and Preparation of Analysis Samples Compound stock solutions were prepared in a 12% BSA in PBS solution such that a 40 μL spike into 2 ml, of plain DMEM would yield a concentration of 50 μM of test compound (the compound treated media). Remaining compound stock solution in 12% BSA in PBS was frozen at −20° C. to allow for media stability testing. The HEK293 6-well plate was removed from the incubator and the wells gently rinsed with 1 mL of plain DMEM that had been prewarmed to 37° C. 2 mL of the compound treated media was then added to each well. A 100 μL sample of the compound treated media was sampled to represent a T=0 h sample; 5 μL of this sample (the remainder was reserved and frozen in case of re-analysis being required) was diluted with 45 μL of DMEM and crashed with 50 μL MeCN in a 96-well plate which was sealed and kept on ice. The HEK293 6-well plate was then incubated at 37° C. in 5% CO2 for 1 hour, the plate was then removed from the incubator and a 100 μL sample of media taken from each well to represent a T=1 h sample; 5 μL of this sample (the remainder was reserved and frozen in case of re-analysis being required) was diluted with 45 μL of DMEM and crashed with 50 μL MeCN into the 96-well plate which was re-sealed and stored at −20° C. The remaining media was then removed from the HEK293 6-well plate, the wells were gently rinsed twice with 1 mL of 0.5% BSA in DMEM, the media was then removed and the 6-well plate allowed to dry completely at RT. 1 ml of 3:2 Hexane:Isopropanol (HIP) was added to each well in a fume cupboard and the plate allowed to stand for 30 minutes at RT without shaking. The HIP solution was then transferred to 2 mL Eppendorf tubes, and the process was repeated with a second 1 mL aliquot of HIP and the two aliquots combined. The HIP samples were then dried down under a nitrogen stream.
Silica gel plates were prepared in a fume cupboard by initially drawing a line 1.5 cm from the bottom edge of the plate and then drawing sample lanes with a width of 1 cm and a separation of 0.5 cm between lanes. TLC buffer for phospholipids was prepared as a 31:62:7 solvent mix of Methanol:Chloroform:Ammonium Hydroxide. Plates were pre-run in a humid chamber containing 200 mL of the TLC buffer until the solvent front was 1.5 cm from the plate edge, the plate was then allowed to dry. […]

For series [2], the target named is T1, hMfsd2a. Kind of series: In vitro Mfsd2a transport, UPLC-MS-MS analysis. The class given is cell-based. The note with it: transfected HEK293 cells, 50 μM test compound, 1 hour. The method, then: as §1, §2, §3
HIP samples prepared as described above were reconstituted in 100 μL of MeCN, vortex mixed and inverted multiple times to ensure all surfaces of the Eppendorf tube were rinsed with the MeCN and finally pulse centrifuged. […]

The nature of series [3]: In vitro brain homogenate stability, rat. The note with it: for half-life at 1 μM: 37° C., test compound at 1 μM, read-out: Rat t1/2; for Clearance in brain homogenate stability study (in words): one hour incubation, increasing formation of Compound 2. The class given is in vitro ADME. How it is done:
(§4) Fresh rodents brains were snap frozen immediately after collection and the assay performed on the same day. Brains were pre-incubated at 37° C. before being spiked with test compound at 1 μM. Samples were collected across 6 time points (0, 10, 20, 30, 45 and 60 minutes) and crashed in cold acetonitrile containing an internal standard (Leucine Enkephalin) and kept on ice until all samples had been collected. The samples were then shaken and centrifuged. 100 μL of supernatant was transferred to a plate containing 50 μL of MilliQ water and mixed. These plates were analyzed by LC-MS/MS over the 6 time points, where the percentage of test compound remaining was calculated using the peak area of the initial timepoint (T=0 minutes) as 100%. The natural log of the percentage remaining was then calculated. The natural log of the percentage remaining versus time (minutes) was plotted on a graph and the gradient of this graph was used to calculate the elimination rate constant (K), The half-life (t1/2) of test compound was calculated using the natural log of 2 divided by the elimination rate constant. The percentage of Compound 2 formed is reported below in Tables 4-6. FIGS. 9A-9F show results of the brain homogenate stability conducted with representative compounds of the Examples.

Series [4] is described as follows: In vitro brain homogenate stability, mouse. The class given is in vitro ADME. The note with it: for half-life at 1 μM: 37° C., test compound at 1 μM, read-out: Mouse t1/2; for Clearance in brain homogenate stability study (in words): one hour incubation, increasing formation of Compound 2. How it is done: as §4
Series [5] is described as follows: PO JVC rat terminal PK study at 20 mg/kg (tissue distribution). It is filed as in vivo. The note with it: rat brain after Compound 3 at 20 mg/kg PO, before the more sensitive method. How it is done:
Compound 3 was orally dosed at 20 mg/kg to a group of nine, jugular vein cannulated, individually housed male Sprague Dawley rats that were fasted overnight and fed 4 h post-dose to assess its tissue distribution profile. Dosing was performed with 5 mL/kg dosing volumes with 5% DMSO, 95% water used as a dosing vehicle. Terminal blood samples (>230 μL) were taken from groups of 3 animals at each of 3 time-points post dose (1 h, 2 h, and 4 h) by cardiac puncture under CO2 into heparinised Eppendorf tubes (containing 5 μL heparin) on ice containing an equal quantity of water. Two 100 μL aliquots were then placed in duplicate 96 well plates on dry ice. Immediately after blood sampling, brain and eye pair samples were excised, weighed, rinsed, blotted, and snap frozen in liquid N2. Samples were stored in the freezer at −20° C. until bioanalysis.
Tissue samples were weighed and a volume of water 3 times the mass added to samples before homogenization. In the case of eyeballs the lens could not be homogenized, but all other tissues homogenized. The resulting data (tissue distribution parameters) are shown below in Table 2.

Series [6] in a line: Brain homogenate re-analysis for Compound 2 after PO Compound 3 at 20 mg/kg. It is filed as in vivo. The note with it: after dosing Compound 3. How it is done:
Re-analysis of the brain tissues harvested above (see Example 4) was conducted according to the following procedures and the data are shown in Table 3. • 1. 100 μL of brain homogenate was transferred to a 2 mL square matrix deep well plate, • 2. 300 μL acetonitrile (ACN) containing IS was dispensed on to the samples and mixed on a shaker. • 3. The samples were centrifuged for 15 min at 3500 rpm. • 4. 300 μL supernatant was transferred in to a fresh 2 mL square matrix deep well plate. • 5. Samples were concentrated using nitrogen then reconstituted in 80 μL of 50:50 ACN:MilliQ water and shaken on a plate shaker. • 6. Samples were then analyzed by LC-MS-MS.

In the case of `CCCCC/C=C\C/C=C\C/C=C\C/C=C\CCCC(=O)NCCOP(=O)(O)OCCN` [Compound 4, 2-ammonioethyl (2-((5Z,8Z,11Z,14Z)-icosa-5,8,11,14-tetraenamido)ethyl) phosphate], at hMfsd2a [1], the “Transport via Mfsd2a: TLC band intensity in WT cells compared with D97A mutant Mfsd2a and/or empty vector cells” value is on record as “transported via Mfsd2a”. Also, the “Transport via Mfsd2a: concentration in HIP samples from WT cells compared with D97A mutant Mfsd2a and/or empty vector cells” value on hMfsd2a [2] is on record as “transported via Mfsd2a”. In addition, in series [3], the half-life at 1 μM is 1.27 h and the “Clearance in brain homogenate stability study (in words)” value (“Clearance” for short) is “demonstrated a level of clearance”. Moreover, in series [4], the half-life at 1 μM is 2 h and the “Clearance” value was “demonstrated a level of clearance”.

Regarding `CCCCC/C=C\C/C=C\C/C=C\C/C=C\CCCC(=O)NCCOC(=O)NCCOP(=O)([O-])OCC[N+](C)(C)C` [Compound 8, 2-(((2-((5Z,8Z,11Z,14Z)-icosa-5,8,11,14-tetraenamido)ethoxy)carbonyl)amino)ethyl (2-(trimethylammonio)ethyl) phosphate], the “Transport via Mfsd2a: TLC band intensity in WT cells compared with D97A mutant Mfsd2a and/or empty vector cells” value on hMfsd2a [1] is recorded as “transported via Mfsd2a”. The “Transport via Mfsd2a: concentration in HIP samples from WT cells compared with D97A mutant Mfsd2a and/or empty vector cells” value on hMfsd2a [2] was “transported via Mfsd2a”.

As for `CCCCC/C=C\C/C=C\C/C=C\C/C=C\CCCC(=O)NCCOC(=O)OCCOP(=O)([O-])OCC[N+](C)(C)C` [Compound 6, 2-(((2-((5Z,8Z,11Z,14Z)-icosa-5,8,11,14-tetraenamido)ethoxy)carbonyl)oxy)ethyl (2-(trimethylammonio)ethyl) phosphate], at hMfsd2a [1], the “Transport via Mfsd2a: TLC band intensity in WT cells compared with D97A mutant Mfsd2a and/or empty vector cells” value was “transported via Mfsd2a”. Besides, at hMfsd2a [2], the “Transport via Mfsd2a: concentration in HIP samples from WT cells compared with D97A mutant Mfsd2a and/or empty vector cells” value is “transported via Mfsd2a”.

As for `CCCCC/C=C\C/C=C\C/C=C\C/C=C\CCCC(=O)NCCOP(=O)(O)OCC(N)C(=O)O` (stereo not shown) [Compound 5, 2-ammonio-2-carboxyethyl (2-((5Z,8Z,11Z,14Z)-icosa-5,8,11,14-tetraenamido)ethyl) phosphate], the “Transport via Mfsd2a: TLC band intensity in WT cells compared with D97A mutant Mfsd2a and/or empty vector cells” value at hMfsd2a [1] is on record as “transported via Mfsd2a”. For the same molecule, the “Transport via Mfsd2a: concentration in HIP samples from WT cells compared with D97A mutant Mfsd2a and/or empty vector cells” value at hMfsd2a [2] is recorded as “cannot be confirmed if the compound is transported via Mfsd2a”. Also, the half-life at 1 μM in series [3] worked out at 2.1 h; in series [4], 4.3 h. Besides, the “Clearance” value in series [3] and in series [4] was “demonstrated a level of clearance” throughout.

For the molecule `CCCCC/C=C\C/C=C\C/C=C\C/C=C\CCCC(=O)NCCOC(=O)OCCCOP(=O)([O-])OCC[N+](C)(C)C` [Compound 7, 3-(((2-((5Z,8Z,11Z,14Z)-icosa-5,8,11,14-tetraenamido)ethoxy)carbonyl)oxy)propyl (2-(trimethylammonio)ethyl) phosphate], on hMfsd2a [1], the “Transport via Mfsd2a: TLC band intensity in WT cells compared with D97A mutant Mfsd2a and/or empty vector cells” value is listed as “transported via Mfsd2a”. On hMfsd2a [2], the “Transport via Mfsd2a: concentration in HIP samples from WT cells compared with D97A mutant Mfsd2a and/or empty vector cells” value is “transported via Mfsd2a”.

Regarding `CCCCC/C=C\C/C=C\C/C=C\C/C=C\CCCC(=O)NCCO` [Compound 2, (5Z,8Z,11Z,14Z)—N-(2-hydroxyethyl)icosa-5,8,11,14-tetraenamide, reference compound], the “Detection of Compound 2 in brain tissues, first analysis” value in series [5] is recorded as “not detected above the lower limit of quantification”. Besides, in series [6], the “Detection of Compound 2 in the brain, in-vivo rat CNS penetration data using Compound 3” value is given as “detected in the brain”.

Take `CCCCC/C=C\C/C=C\C/C=C\C/C=C\CCCC(=O)NOC(C)(O)COP(=O)([O-])OCC[N+](C)(C)C` (stereo not shown) [Compound 20, 2-hydroxy-2-(((5Z,8Z,11Z,14Z)-icosa-5,8,11,14-tetraenamido)oxy)propyl (2-(trimethylammonio)ethyl) phosphate]: on hMfsd2a [1], the “Transport via Mfsd2a: TLC band intensity in WT cells compared with D97A mutant Mfsd2a and/or empty vector cells” value was “cannot be confirmed if the compound is transported via Mfsd2a”. For the same molecule, the “Transport via Mfsd2a: concentration in HIP samples from WT cells compared with D97A mutant Mfsd2a and/or empty vector cells” value at hMfsd2a [2] is reported as “transported via Mfsd2a”.

These data come from patent US20220112225A1, “ANANDAMIDE COMPOUNDS” (priority 2019, published 2022).
